Paper PMC8748404 (Angewandte Chemie (International ed. in English), 2021)

Legend:
[1] = molecular target: eDHFR (Escherichia coli, UniProt P0ABQ4); test: FP assay, displacement of fluorescein-labeled methotrexate; format: binding, E. coli; settings: displacement of fluorescein-labeled MTX from eDHFR
[2] = molecular target: T1, human DHFR (Homo sapiens, UniProt P00374); test: inhibition of human DHFR; format: biochemical
T1 sequence (P00374 1-187): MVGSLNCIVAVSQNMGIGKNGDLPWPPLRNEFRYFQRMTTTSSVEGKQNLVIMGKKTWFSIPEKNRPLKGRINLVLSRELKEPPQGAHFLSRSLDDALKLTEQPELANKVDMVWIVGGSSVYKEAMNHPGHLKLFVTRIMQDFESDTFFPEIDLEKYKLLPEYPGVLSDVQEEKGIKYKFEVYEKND

[3] = molecular target: HaloTag-eDHFR (Escherichia coli, UniProt P0ABQ4); test: DNA-based ligand displacement screen of LOPAC library with DNA-linked TMP probe; format: binding, E. coli; settings: LOPAC1280 screen against HaloTag-eDHFR
Sequence of HaloTag-eDHFR (P0ABQ4 whole entry): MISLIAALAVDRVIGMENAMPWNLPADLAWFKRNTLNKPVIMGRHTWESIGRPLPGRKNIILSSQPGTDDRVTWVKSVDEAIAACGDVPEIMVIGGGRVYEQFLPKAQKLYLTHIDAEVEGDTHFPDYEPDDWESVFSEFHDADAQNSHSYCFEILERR

[4] = molecular target: E. coli dihydrofolate reductase (eDHFR) (Escherichia coli, UniProt P0ABQ4); test: inhibition assays of eDHFR; format: biochemical; settings: eDHFR inhibition assay
Sequence of E. coli dihydrofolate reductase (eDHFR) (P0ABQ4 whole entry): as above

[5] = tested on: BRD7/9; test: concurrent DNA-based displacement screening, DNA-bromosporine probe; format: binding; settings: screen of 1000 compounds, TargetMol Bioactive Compound Library
[6] = tested on: PB1-BD2, PB1-BD4, PB1-BD5, BRD7 and BRD9; test: concurrent screening against five bromodomain proteins; format: binding; settings: five bromodomain proteins screened concurrently
[7] = molecular target: PB1-BD2/4/5; test: DNA-based ligand displacement assay, IC50 determination of hit compounds; format: binding

Sequence of eDHFR (P0ABQ4 whole entry): as above

| Structure (SMILES) | IC50 [1] | inhibition of human DHFR [2] | recovery of DNA-linked probe [3] | Ki [4] | displacement of DNA-bromosporine probe [5] | selectivity in concurrent screen [6] | binding to respective bromodomains (IC50 determination) [7] |
| --- | --- | --- | --- | --- | --- | --- | --- |
| CN(CCOc1ccc(C[C@H](Nc2ccccc2C(=O)c2ccccc2)C(=O)O)cc1)c1ccccn1 [GW1929] | 7.9 µM | modest inhibition | low recovery | 0.41 µM | – | – | – |
| CN1C(=O)c2sccc2N(C)c2nc(Nc3ccc(S(N)(=O)=O)cc3)ncc21 [XMU-MP-1] | – | – | – | – | significantly displaced | selectivity towards BRD7/9 over PB1-BD2/4/5 | – |
| Cc1cc(C)c(Nc2ccnc(Nc3ccc(C#N)cc3)n2)c(C)c1 [dapivirine] | – | – | – | – | – | selectivity for PB1-BD4 | potent binding |
